Results reported in patent US10172821B2, “Histone deacetylase inhibitors” (President & Fellows of Harvard College, priority 2006, dated 2019).

Columns and labels:
[1] = test system: acetylated histones (AcH3K18); experiment: Pharmacodynamic effect by immunohistochemical staining for acetylated histones; type: in vivo; conditions: SAHP-treated mice compared to vehicle treated controls; FIG. 15
[2] = test system: Transformed lymphocytes derived from involved skin of IL-7 transgenic mice (lymphoproliferative disease similar to human cutaneous T-cell lymphoma); experiment: Topical treatment of mice with lymphoproliferative skin disease (CTCL model), histopathologic examination; type: in vivo; conditions: daily, fourteen days of therapy, versus vehicle control, FIG. 14
Excerpt: FIG. 14. Interleukin-7 is a growth factor for T-cell development, in particular the gamma-delta subset. Transgenic mice overexpressing IL-7 in keratinocytes were developed by the laboratories of Thomas Kupper and Benjamin Rich, using a tissue-specific keratin-14 promoter element. These mice have been reported to develop a characteristic lymphoproliferative skin disease grossly and histologically similar to human cutaneous T-cell lymphoma (CTCL). Transformed lymphocytes derived from involved skin were passaged ex vivo and injected into syngeneic (non-transgenic) mice. After fourteen days, these mice develop a homogeneous lymphoproliferative disease. Two cohorts of five mice were included in a prospective study of topical, daily suberoyl hydroxamic acid phenyl ester (SAHP, also known as SHAPE) versus vehicle control. After fourteen days of therapy, mice were sacrificed and the treated region was dissected for histopathologic examination.

[3] = Degradation of SAHP in serum; type: in vitro ADME
Procedure: In less than 15 minutes, SAHP is completely degraded.
In less than 2 minutes, SAHP is completely degraded into phenol and the corresponding carboxylic acid.

## O=C(CCCCCCC(=O)Oc1ccccc1)NO [SAHP, suberoyl hydroxamic acid phenyl ester]
[1]
  AcH3K18 staining (histone hyperacetylation) in treated skin: hyperacetylated histone staining at the margin of compound treatment, with absent nuclear staining in the region of drug response
[2]
  lymphomatous infiltration within the treated window (hematoxylin-eosin staining): marked reduction in lymphomatous infiltration
[3]; FIG. 6
  time until SAHP is completely degraded in serum: less than 15 minutes
[3]; more detailed study, FIG. 7
  time until SAHP is completely degraded into phenol and the corresponding carboxylic acid: less than 2 minutes
